Results reported in ChEMBL document CHEMBL5303763, “Data for DCP probe BI-3802” (2023).

Assays:
[1] = biological target: Tyrosine-protein kinase Lck (Homo sapiens) (UniProt P06239); assay: LCK_CE Eurofins SafetyScreen44 (BI); conditions: Compound concentration 10.0 uM
[2] = biological target: Prostaglandin G/H synthase 1 (Homo sapiens) (UniProt P23219); assay: COX-1 Eurofins SafetyScreen44 (BI); conditions: Compound concentration 10.0 uM
[3] = biological target: Kappa-type opioid receptor (Homo sapiens) (UniProt P41145); assay: KAPPA(KOP)_HU Eurofins SafetyScreen44 (BI); conditions: Compound concentration 10.0 uM
[4] = biological target: T1, Alpha-2A adrenergic receptor (Homo sapiens) (UniProt P08913); assay: ALPHA2A/HU Eurofins SafetyScreen44 (BI); conditions: Compound concentration 10.0 uM
T1 sequence (whole entry): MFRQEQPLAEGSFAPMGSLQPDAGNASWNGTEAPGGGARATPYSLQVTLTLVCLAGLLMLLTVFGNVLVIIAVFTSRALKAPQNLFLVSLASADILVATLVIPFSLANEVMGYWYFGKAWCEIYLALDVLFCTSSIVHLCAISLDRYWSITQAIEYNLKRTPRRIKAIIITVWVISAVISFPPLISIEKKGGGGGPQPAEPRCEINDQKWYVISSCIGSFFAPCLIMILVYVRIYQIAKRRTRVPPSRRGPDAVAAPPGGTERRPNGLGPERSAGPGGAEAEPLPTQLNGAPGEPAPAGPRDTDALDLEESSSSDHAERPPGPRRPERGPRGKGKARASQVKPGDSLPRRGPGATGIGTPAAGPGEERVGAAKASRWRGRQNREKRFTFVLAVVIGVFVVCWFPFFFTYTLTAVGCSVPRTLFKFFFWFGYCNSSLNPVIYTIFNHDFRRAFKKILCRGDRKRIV

[5] = biological target: Muscarinic acetylcholine receptor M3 (Homo sapiens) (UniProt P20309); assay: M3/H Eurofins SafetyScreen44 (BI); conditions: Compound concentration 10.0 uM
[6] = biological target: D(2) dopamine receptor (Homo sapiens) (UniProt P14416); assay: D2SH_AGON Eurofins SafetyScreen44 (BI); conditions: filed as agonist, Compound concentration 10.0 uM
[7] = biological target: Prostaglandin G/H synthase 2 (Homo sapiens) (UniProt P35354); assay: COX-2 Eurofins SafetyScreen44 (BI); conditions: Compound concentration 10.0 uM
[8] = biological target: Cannabinoid receptor 2 (Homo sapiens) (UniProt P34972); assay: CB2/PERIPH/H Eurofins SafetyScreen44 (BI); conditions: Compound concentration 10.0 uM
[9] = biological target: T2, 5-hydroxytryptamine receptor 3A (Homo sapiens) (UniProt P46098); assay: 5HT3/H Eurofins SafetyScreen44 (BI); conditions: Compound concentration 10.0 uM
T2 sequence (whole entry): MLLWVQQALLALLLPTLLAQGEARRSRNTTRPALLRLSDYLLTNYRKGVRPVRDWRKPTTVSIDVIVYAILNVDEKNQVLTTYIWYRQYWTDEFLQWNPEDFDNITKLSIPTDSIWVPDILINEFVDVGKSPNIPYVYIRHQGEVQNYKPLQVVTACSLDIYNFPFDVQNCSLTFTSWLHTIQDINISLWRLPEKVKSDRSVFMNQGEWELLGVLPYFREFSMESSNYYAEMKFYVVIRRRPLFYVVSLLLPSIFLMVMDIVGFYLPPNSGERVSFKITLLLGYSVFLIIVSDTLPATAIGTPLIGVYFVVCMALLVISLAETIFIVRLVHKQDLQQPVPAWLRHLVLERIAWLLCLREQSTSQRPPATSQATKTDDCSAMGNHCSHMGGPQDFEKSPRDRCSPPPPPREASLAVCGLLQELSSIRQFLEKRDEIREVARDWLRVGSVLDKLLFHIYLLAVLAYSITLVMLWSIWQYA

[10] = biological target: Angiotensin-converting enzyme (Homo sapiens) (UniProt P12821); assay: ACE(HU_AMTCH400) Eurofins SafetyScreen44 (BI); conditions: Compound concentration 10.0 uM
[11] = biological target: T3, 5-hydroxytryptamine receptor 1A (Homo sapiens) (UniProt P08908); assay: 5HT1A/H Eurofins SafetyScreen44 (BI); conditions: Compound concentration 10.0 uM
T3 sequence (whole entry): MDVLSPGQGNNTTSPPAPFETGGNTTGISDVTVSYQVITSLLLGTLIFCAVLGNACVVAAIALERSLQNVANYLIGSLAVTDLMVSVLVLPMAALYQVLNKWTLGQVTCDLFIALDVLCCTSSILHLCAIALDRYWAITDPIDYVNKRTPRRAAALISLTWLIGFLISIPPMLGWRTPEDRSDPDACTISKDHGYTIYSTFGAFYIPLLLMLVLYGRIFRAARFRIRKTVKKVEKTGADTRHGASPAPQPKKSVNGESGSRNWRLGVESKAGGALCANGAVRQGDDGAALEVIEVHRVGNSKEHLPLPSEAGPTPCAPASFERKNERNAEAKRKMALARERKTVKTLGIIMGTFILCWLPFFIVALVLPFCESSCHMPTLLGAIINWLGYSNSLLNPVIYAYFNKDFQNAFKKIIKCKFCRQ

[12] = biological target: Endothelin-1 receptor (Homo sapiens) (UniProt P25101); assay: ETA/H Eurofins SafetyScreen44 (BI); conditions: Compound concentration 10.0 uM
[13] = biological target: Tyrosine-protein kinase ITK/TSK (Homo sapiens) (UniProt Q08881); assay: ITK Invitrogen Lab (UK) kinase screen (BI); conditions: Compound concentration 1.0 uM
[14] = biological target: Ribosomal protein S6 kinase alpha-4 (Homo sapiens) (UniProt O75676); assay: RPS6KA4 Invitrogen Lab (UK) kinase screen (BI); conditions: Compound concentration 1.0 uM
[15] = biological target: Muscarinic acetylcholine receptor M3 (Homo sapiens) (UniProt P20309); conditions: Compound concentration 10.0 uM
[16] = biological target: D(2) dopamine receptor (Homo sapiens) (UniProt P14416); conditions: Compound concentration 10.0 uM
[17] = biological target: Casein kinase I isoform alpha (Homo sapiens) (UniProt P48729); assay: CSNK1A1 Invitrogen Lab (UK) kinase screen (BI); conditions: Compound concentration 1.0 uM
[18] = biological target: D(1B) dopamine receptor (Homo sapiens) (UniProt P21918); conditions: Compound concentration 10.0 uM
[19] = biological target: Sigma intracellular receptor 2 (Homo sapiens) (UniProt Q5BJF2); conditions: Compound concentration 10.0 uM
[20] = biological target: Mitogen-activated protein kinase 3 (Homo sapiens) (UniProt P27361); assay: MAPK3 Invitrogen Lab (UK) kinase screen (BI); conditions: Compound concentration 1.0 uM
[21] = biological target: Sodium-dependent serotonin transporter (Homo sapiens) (UniProt P31645); conditions: Compound concentration 10.0 uM
[22] = biological target: 5-hydroxytryptamine receptor 7 (Homo sapiens) (UniProt P34969); conditions: Compound concentration 10.0 uM
[23] = biological target: 5-hydroxytryptamine receptor 2A (Homo sapiens) (UniProt P28223); conditions: Compound concentration 10.0 uM
[24] = biological target: Rho-associated protein kinase 2 (Homo sapiens) (UniProt O75116); assay: ROCK2 Invitrogen Lab (UK) kinase screen (BI); conditions: Compound concentration 1.0 uM
[25] = biological target: 5-hydroxytryptamine receptor 5A (Homo sapiens) (UniProt P47898); conditions: Compound concentration 10.0 uM
[26] = biological target: Protein kinase C alpha type (Homo sapiens) (UniProt P17252); assay: PRKCA Invitrogen Lab (UK) kinase screen (BI); conditions: Compound concentration 1.0 uM
[27] = biological target: Proto-oncogene tyrosine-protein kinase receptor Ret (Homo sapiens) (UniProt P07949); assay: RET Invitrogen Lab (UK) kinase screen (BI); conditions: Compound concentration 1.0 uM

Sequence of Muscarinic acetylcholine receptor M3 (Homo sapiens) (P20309 whole entry, looked up): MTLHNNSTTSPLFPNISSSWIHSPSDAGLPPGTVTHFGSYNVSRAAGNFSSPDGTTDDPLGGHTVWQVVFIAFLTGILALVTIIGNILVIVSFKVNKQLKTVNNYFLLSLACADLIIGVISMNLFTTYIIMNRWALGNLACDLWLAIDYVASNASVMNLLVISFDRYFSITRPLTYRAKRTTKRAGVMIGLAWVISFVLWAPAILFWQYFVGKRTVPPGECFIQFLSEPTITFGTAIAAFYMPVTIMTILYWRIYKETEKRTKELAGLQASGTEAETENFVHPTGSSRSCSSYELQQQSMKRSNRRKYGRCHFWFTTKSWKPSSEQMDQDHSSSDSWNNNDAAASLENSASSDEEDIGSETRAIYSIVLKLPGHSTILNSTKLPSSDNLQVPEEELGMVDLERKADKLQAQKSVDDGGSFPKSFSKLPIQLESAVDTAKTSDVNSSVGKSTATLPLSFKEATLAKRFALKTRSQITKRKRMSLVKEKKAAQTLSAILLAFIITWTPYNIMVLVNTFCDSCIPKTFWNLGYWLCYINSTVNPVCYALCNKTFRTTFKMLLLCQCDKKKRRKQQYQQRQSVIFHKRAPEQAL
Sequence of D(2) dopamine receptor (Homo sapiens) (P14416 whole entry, canonical isoform): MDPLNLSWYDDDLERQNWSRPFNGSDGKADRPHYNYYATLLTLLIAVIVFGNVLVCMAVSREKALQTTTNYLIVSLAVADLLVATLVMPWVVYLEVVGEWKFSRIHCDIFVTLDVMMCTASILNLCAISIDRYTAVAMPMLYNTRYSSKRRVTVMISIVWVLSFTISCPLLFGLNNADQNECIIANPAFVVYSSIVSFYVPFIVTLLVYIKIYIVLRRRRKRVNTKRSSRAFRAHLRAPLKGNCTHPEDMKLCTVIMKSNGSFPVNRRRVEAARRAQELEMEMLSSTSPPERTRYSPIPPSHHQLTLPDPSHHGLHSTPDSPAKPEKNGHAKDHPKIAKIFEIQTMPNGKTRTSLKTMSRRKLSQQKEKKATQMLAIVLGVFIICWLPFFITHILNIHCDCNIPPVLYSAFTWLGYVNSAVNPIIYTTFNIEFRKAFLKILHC
Sequence of Angiotensin-converting enzyme (Homo sapiens) (P12821 whole entry): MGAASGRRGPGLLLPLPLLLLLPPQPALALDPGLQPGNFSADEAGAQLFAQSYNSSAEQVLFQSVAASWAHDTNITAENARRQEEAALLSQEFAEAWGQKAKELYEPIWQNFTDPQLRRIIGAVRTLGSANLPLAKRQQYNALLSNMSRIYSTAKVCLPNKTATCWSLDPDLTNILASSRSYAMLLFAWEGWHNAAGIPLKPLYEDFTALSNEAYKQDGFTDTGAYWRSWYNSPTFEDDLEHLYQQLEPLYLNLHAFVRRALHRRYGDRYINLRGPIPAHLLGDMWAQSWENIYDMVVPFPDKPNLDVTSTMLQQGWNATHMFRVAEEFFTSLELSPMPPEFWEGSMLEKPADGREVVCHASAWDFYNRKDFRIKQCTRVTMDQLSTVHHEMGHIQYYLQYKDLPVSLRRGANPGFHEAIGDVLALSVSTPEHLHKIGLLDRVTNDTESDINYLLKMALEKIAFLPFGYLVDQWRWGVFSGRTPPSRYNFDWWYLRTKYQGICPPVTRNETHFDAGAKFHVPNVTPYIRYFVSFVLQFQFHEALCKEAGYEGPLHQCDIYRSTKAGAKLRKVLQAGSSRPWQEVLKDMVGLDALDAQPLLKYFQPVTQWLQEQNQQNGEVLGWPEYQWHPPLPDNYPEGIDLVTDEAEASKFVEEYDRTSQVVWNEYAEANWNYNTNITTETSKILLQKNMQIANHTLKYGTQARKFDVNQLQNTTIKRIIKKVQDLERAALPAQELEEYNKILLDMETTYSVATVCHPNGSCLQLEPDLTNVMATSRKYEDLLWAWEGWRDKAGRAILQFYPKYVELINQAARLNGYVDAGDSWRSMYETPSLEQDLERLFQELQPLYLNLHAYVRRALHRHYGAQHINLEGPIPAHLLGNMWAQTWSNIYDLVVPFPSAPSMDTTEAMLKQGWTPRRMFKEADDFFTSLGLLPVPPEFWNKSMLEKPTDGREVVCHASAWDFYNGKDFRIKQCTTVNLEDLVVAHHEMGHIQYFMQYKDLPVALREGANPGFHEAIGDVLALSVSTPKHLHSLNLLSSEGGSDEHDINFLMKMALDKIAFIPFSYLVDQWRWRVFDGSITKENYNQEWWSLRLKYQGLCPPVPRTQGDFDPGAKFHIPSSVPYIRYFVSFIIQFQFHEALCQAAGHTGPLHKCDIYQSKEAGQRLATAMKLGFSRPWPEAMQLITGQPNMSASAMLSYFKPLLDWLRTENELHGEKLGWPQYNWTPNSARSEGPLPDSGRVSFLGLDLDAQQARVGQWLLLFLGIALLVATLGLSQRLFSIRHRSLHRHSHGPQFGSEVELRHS
Sequence of Prostaglandin G/H synthase 2 (Homo sapiens) (P35354 whole entry): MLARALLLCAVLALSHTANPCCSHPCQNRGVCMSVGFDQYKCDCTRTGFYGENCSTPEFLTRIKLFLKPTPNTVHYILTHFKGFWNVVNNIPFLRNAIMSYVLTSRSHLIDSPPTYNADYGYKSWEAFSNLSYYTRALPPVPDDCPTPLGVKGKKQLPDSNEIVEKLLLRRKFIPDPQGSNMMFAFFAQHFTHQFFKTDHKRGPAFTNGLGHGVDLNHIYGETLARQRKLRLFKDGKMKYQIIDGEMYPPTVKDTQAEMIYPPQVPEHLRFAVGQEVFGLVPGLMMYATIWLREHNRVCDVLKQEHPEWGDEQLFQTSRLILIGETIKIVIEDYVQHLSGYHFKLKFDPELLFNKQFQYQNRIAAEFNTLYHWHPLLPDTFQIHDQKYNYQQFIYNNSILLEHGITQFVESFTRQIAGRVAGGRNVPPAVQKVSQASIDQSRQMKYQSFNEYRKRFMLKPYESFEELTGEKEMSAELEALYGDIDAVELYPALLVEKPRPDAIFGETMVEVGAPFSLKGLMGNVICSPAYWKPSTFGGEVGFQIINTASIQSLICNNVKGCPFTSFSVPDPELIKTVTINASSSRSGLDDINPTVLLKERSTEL
Sequence of Cannabinoid receptor 2 (Homo sapiens) (P34972 whole entry): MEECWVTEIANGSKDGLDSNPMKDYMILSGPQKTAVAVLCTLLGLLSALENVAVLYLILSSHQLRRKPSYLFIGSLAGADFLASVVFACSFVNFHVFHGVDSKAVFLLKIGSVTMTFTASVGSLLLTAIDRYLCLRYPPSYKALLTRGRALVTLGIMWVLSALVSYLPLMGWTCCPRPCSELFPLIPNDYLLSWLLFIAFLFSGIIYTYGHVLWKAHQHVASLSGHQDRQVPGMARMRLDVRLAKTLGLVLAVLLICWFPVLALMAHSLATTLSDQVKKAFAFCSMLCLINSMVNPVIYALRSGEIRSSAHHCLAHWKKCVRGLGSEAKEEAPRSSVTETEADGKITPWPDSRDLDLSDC
Sequence of Tyrosine-protein kinase Lck (Homo sapiens) (P06239 2-509 limits assumed): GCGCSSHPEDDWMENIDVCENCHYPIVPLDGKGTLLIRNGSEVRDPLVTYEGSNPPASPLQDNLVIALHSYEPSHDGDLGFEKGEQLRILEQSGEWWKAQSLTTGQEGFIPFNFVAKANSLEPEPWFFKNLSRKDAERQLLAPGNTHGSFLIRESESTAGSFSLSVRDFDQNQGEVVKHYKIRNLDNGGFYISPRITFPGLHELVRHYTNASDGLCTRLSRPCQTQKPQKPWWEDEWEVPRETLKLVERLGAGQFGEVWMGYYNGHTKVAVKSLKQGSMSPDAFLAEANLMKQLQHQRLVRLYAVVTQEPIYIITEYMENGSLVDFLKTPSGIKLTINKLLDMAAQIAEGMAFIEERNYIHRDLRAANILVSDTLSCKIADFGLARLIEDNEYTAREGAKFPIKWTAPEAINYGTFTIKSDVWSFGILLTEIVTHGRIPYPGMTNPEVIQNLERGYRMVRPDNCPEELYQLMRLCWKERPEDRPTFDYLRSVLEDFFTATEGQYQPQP
Sequence of 5-hydroxytryptamine receptor 7 (Homo sapiens) (P34969 whole entry): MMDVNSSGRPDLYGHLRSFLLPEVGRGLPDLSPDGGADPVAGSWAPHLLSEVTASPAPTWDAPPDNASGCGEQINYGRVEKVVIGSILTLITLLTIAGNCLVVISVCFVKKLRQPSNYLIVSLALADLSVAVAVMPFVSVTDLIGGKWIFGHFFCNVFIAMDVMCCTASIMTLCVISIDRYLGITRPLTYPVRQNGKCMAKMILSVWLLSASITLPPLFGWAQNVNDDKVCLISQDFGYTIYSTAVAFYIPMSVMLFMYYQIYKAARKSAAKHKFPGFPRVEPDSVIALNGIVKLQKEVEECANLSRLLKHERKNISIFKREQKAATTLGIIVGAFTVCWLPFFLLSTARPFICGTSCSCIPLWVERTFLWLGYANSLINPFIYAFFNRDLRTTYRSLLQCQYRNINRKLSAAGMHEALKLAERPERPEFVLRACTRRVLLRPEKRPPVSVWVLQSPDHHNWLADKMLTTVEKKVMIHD
Sequence of Sigma intracellular receptor 2 (Homo sapiens) (Q5BJF2 whole entry): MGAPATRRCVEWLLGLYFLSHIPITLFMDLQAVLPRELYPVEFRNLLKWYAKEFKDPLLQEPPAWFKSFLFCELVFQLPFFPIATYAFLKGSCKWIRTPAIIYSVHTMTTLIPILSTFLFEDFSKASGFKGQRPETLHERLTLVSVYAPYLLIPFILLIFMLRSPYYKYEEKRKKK
Sequence of D(1B) dopamine receptor (Homo sapiens) (P21918 whole entry): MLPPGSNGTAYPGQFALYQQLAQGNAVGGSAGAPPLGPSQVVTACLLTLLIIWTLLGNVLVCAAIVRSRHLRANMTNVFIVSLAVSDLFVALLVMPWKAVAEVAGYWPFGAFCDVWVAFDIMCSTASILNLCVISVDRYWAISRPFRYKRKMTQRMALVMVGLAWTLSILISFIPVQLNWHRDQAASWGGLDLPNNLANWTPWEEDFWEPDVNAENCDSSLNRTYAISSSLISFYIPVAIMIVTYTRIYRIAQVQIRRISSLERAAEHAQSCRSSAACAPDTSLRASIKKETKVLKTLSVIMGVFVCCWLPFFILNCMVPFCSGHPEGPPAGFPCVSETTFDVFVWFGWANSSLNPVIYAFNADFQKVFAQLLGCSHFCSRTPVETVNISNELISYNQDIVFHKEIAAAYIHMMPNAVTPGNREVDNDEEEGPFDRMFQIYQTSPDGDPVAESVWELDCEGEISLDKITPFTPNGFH

C[C@@H]1C[C@H](C)CN(c2ncc(Cl)c(Nc3ccc4c(c3)cc(OC(C)(C)C(=O)O)c(=O)n4C)n2)C1
inactive: residual activity [1] 87% | residual activity [2] 82% | residual activity [3] 86% | residual activity [4] 104% | residual activity [5] 111% | residual activity [6] 86% | residual activity [7] 75% | residual activity [8] 103% | residual activity [9] 95% | residual activity [10] 111% | residual activity [11] 97% | residual activity [12] 111%

CNC(=O)COc1cc2cc(Nc3nc(N4C[C@H](C)C[C@H](C)C4)ncc3Cl)ccc2n(C)c1=O
inactive: residual activity [1] 114% | residual activity [2] 90% | residual activity [4] 111% | residual activity [5] 110% | residual activity [13] 100% | residual activity [14] 99% | residual activity [6] 115% | residual activity [7] 88% | residual activity [8] 96% | inhibition [15] -2.43% | inhibition [16] -8.96% | residual activity [9] 101% | residual activity [10] 106% | residual activity [17] 93% | inhibition [18] 1.96% | inhibition [19] 17.1% | residual activity [20] 105% | residual activity [11] 90% | inhibition [21] 2.53% | inhibition [22] 15.5% | inhibition [23] -1.56% | residual activity [24] 100% | inhibition [25] 0.2% | residual activity [26] 113% | residual activity [12] 100% | residual activity [27] 101%
